Tested on: HepG2
Test: Induction of apoptosis in human HepG2 cells incubated for 24 hrs by Annexin V-FITC and propidium iodide staining based microcapillary flow cytometry
Format: functional, cell-based
Details: HepG2, 24 h

| Compound | EC50 |
| --- | --- |
| Cl.Nc1nc(-c2cccc(NC(=O)c3cc4cc(Cl)ccc4[nH]3)c2)c[nH]1 | 16 µM |
| CNc1nc(-c2cccc(NC(=O)c3cc4ccccc4[nH]3)c2)c[nH]1.Cl | 20 µM |
| Cl.Nc1nc(-c2cccc(NC(=O)c3cc4sccc4[nH]3)c2)c[nH]1 | 42 µM |

Tested on: THP-1
Test: Induction of cell cycle arrest in human THP1 cells assessed accumulation at subG1 phase at 25 uM incubated for 48 hrs by propidium iodide staining based microcapillary flow cytometry (reference value: 2 +/- 1%)
Format: functional
Details: not given

| Compound | Activity |
| --- | --- |
| Cl.Nc1nc(-c2cccc(NC(=O)c3cc4cc(Cl)ccc4[nH]3)c2)c[nH]1 | 40% |
| CNc1nc(-c2cccc(NC(=O)c3cc4ccccc4[nH]3)c2)c[nH]1.Cl | 49% |

Tested on: THP-1
Test: Induction of cell cycle arrest in human THP1 cells assessed accumulation at subG1 phase at 25 uM incubated for 24 hrs by propidium iodide staining based microcapillary flow cytometry (reference value: 2 +/- 1%)
Format: functional
Details: not given

| Compound | Activity |
| --- | --- |
| Cl.Nc1nc(-c2cccc(NC(=O)c3cc4cc(Cl)ccc4[nH]3)c2)c[nH]1 | 26% |
| CNc1nc(-c2cccc(NC(=O)c3cc4ccccc4[nH]3)c2)c[nH]1.Cl | 18% |

Tested on: HepG2
Test: Induction of apoptosis in human HepG2 cells at 50 uM incubated for 24 hrs by Annexin V-FITC and propidium iodide staining based microcapillary flow cytometry
Format: functional
Details: not given

| Compound | Activity |
| --- | --- |
| Nc1nc(/C=C/CNC(=O)c2cc3cc(F)ccc3[nH]2)c[nH]1 | 38% |
| Nc1nc(-c2cccc(NC(=O)c3ccc[nH]3)c2)cn1Cc1ccccc1 | 54% |
| Cl.Cl.Nc1nc(CN2CCN(C(=O)c3ccc[nH]3)CC2)c[nH]1 | 27% |
| Nc1nc2c(s1)C[C@@H](NC(=O)c1cc(Br)c[nH]1)CC2 | 28% |
| O=C(Nc1cccc(-n2cnnn2)c1)c1cc2c(F)cccc2s1 | 39% |
| O=C(Nc1cccc(-c2ccn[nH]2)c1)c1ccc2[nH]cnc2c1 | 47% |
| Nc1ncc(/C=C/CNC(=O)c2cc(Br)c(Br)[nH]2)[nH]1 [OROIDIN] | 35% |
| Nc1ncc(C(=O)N2CCN(C(=O)c3ccc[nH]3)CC2)s1 | 20% |
| Cl.Cl.Nc1nc(-c2cccc(NC(=O)C3CCCN3)c2)c[nH]1 (single isomer, unassigned) | 16% |
| Cl.Cl.Nc1nc(CN2CCN(C(=O)c3c[nH]c4ccccc34)CC2)c[nH]1 | 30% |
| CC(C)(C)OC(=O)n1cc(-c2ccc(NCc3c[nH]cn3)cc2)nc1N | 39% |
| Cl.Cl.Nc1nc2c(s1)CC(CNC(=O)[C@@H]1CCCN1)CC2 (stereo not given in full) | 27% |
| Cl.Cl.Nc1nc2c(s1)C[C@@H](NC(=O)[C@@H]1CCCN1)CC2 | 22% |
| CNc1nc(-c2cccc(NC(=O)c3cc4ccccc4[nH]3)c2)cn1C(=O)OC(C)(C)C | 90% |
| Nc1nc2c(s1)C[C@@H](NCc1ccc[nH]1)CC2 | 30% |
| Nc1nc(/C=C/CNC(=O)c2cc(Br)c[nH]2)c[nH]1 | 25% |
| Nc1nc(/C=C/CNC(=O)c2ccccc2)c[nH]1 | 33% |
| CC(C)(C)OC(=O)n1cc(-c2cccc(NC(=O)c3ccc[nH]3)c2)nc1N | 21% |
| Nc1nc2c(s1)CC(CNC(=O)c1cc(Br)c(Br)[nH]1)CC2 (stereo not given) | 23% |
| CNC1=NC(c2cccc(NC(=O)c3ccc[nH]3)c2)CN1C(=O)OC(C)(C)C (stereo not given) | 31% |
| Cl.Nc1nc(-c2cccc(NC(=O)c3cc[nH]c3)c2)c[nH]1 | 16% |
| Cc1nc(-c2cccc(NC(=O)c3cc4ccccc4[nH]3)c2)cs1 | 57% |
| Nc1nc2c(s1)C[C@@H](NC(=O)c1cc3ccccc3[nH]1)CC2 | 27% |

| Compound | Activity |
| --- | --- |
| CNC1=NC(c2cccc(NC(=O)c3ccco3)c2)CN1.Cl (stereo not given) | 28% |
| CNC1=NC(c2cccc(NC(=O)c3ccco3)c2)CN1C(=O)OC(C)(C)C (stereo not given) | 32% |
| CC(C)(C)OC(=O)n1cc(-c2cccc(NC(=O)c3cc4cc(F)ccc4[nH]3)c2)nc1N | 89% |
| Nc1nc2c(s1)CC(CNC(=O)c1cc3ccccc3[nH]1)CC2 (stereo not given) | 32% |
| Cl.Cl.Nc1nc(CN2CCN(Cc3ccc[nH]3)CC2)c[nH]1 | 34% |
| Nc1nc(-c2cccc(NCc3ccc[nH]3)c2)cn1Cc1ccccc1 | 86% |
| Nc1ncc(CC(=O)N2CCN(C(=O)c3ccc[nH]3)CC2)s1 | 23% |
| CCn1nnnc1-c1cccc(NC(=O)c2cc3ccccc3[nH]2)c1 | 28% |
| Cc1nc(-c2cccc(NC(=O)c3cn4ccccc4n3)c2)cs1 | 25% |
| CC(C)(C)OC(=O)n1cc(-c2ccc(NCc3ccc[nH]3)cc2)nc1N | 34% |
| CC(C)(C)OC(=O)n1cc(-c2cccc(NC(=O)c3cc4cc(O)ccc4[nH]3)c2)nc1N | 56% |
| Cl.Nc1nc(-c2ccc(NC(=O)c3ccc[nH]3)cc2)c[nH]1 | 20% |
| CCn1cnnc1-c1cccc(NC(=O)c2cc3ccc(C)cc3[nH]2)c1 | 55% |
| CC(C)(C)OC(=O)n1cc(-c2cccc(NC(=O)c3cc4cc(Cl)ccc4[nH]3)c2)nc1N | 91% |
| O=C(Nc1cccc(-n2cnnn2)c1)c1cn2ccccc2n1 | 27% |
| Cl.Cl.Nc1nc(CN2CCN(C(=O)c3cc4ccccc4[nH]3)CC2)c[nH]1 | 32% |
| Cl.Nc1nc(-c2cccc(NC(=O)c3cc4cc(Cl)ccc4[nH]3)c2)c[nH]1 | 93% |
| Cc1cc(=O)[nH]c(-c2cccc(NC(=O)c3ccc(N(C)C)cc3)c2)n1 | 37% |
| O=C1CCc2cc(C(=O)Nc3cccc(-c4ccn[nH]4)c3)ccc2N1 | 26% |
| CNc1nc(-c2cccc(NC(=O)c3ccco3)c2)cn1C(=O)OC(C)(C)C | 44% |
| Nc1nc2c(s1)C[C@@H](NC(=O)c1cc(Br)c(Br)[nH]1)CC2 | 35% |
| O=C(Nc1cccc(-n2cnnn2)c1)c1cc2ccccc2[nH]1 | 56% |
| CC(C)(C)OC(=O)n1cc(-c2cccc(NC(=O)c3c[nH]c4ccccc34)c2)nc1N | 62% |

| Compound | Activity |
| --- | --- |
| Cl.Nc1nc(-c2cccc(NC(=O)c3cc4cc(O)ccc4[nH]3)c2)c[nH]1 | 19% |
| CNc1nc(-c2cccc(NC(=O)c3cc4ccccc4[nH]3)c2)c[nH]1.Cl | 91% |
| O=C(Nc1cccc(N2CCCC2=O)c1)c1cc2ccccc2[nH]1 | 43% |
| CNC1=NC(c2cccc(NC(=O)c3cc4ccccc4[nH]3)c2)CN1C(=O)OC(C)(C)C (stereo not given) | 74% |
| Cl.Cl.Cl.Nc1nc(CN2CCN(C(=O)[C@@H]3CCCN3)CC2)c[nH]1 | 28% |
| Cl.Cl.Nc1nc(CN2CCN(C(=O)c3cccnc3)CC2)c[nH]1 | 28% |
| O=C(NC1CC1)c1cccc(NC(=O)c2cc3c(F)cccc3[nH]2)c1 | 51% |
| CC(C)(C)OC(=O)N1CCC[C@H]1C(=O)NCC1CCc2nc(N)sc2C1 (stereo not given in full) | 23% |
| Cc1ccn2cc(C(=O)Nc3cccc(-c4nnco4)c3)nc2c1 | 6% |
| Cc1ccc2cc(C(=O)Nc3cccc(C(N)=O)c3)[nH]c2c1 | 66% |
| Nc1nc2c(s1)C[C@@H](NC(=O)c1ccc[nH]1)CC2 | 23% |
| O=C(c1ccc[nH]1)N1CCN(Cc2c[nH]cn2)CC1 | 23% |
| CC(C)(C)OC(=O)n1cc(-c2cccc(NC(=O)c3cc4cc(OC(F)(F)F)ccc4[nH]3)c2)nc1N | 43% |
| O=C(Nc1cccc(-c2ccn[nH]2)c1)c1cc2ccccc2o1 | 40% |
| Cl.Nc1nc(-c2cccc(NC(=O)c3cc4cc(OCc5ccccc5)ccc4[nH]3)c2)c[nH]1 | 50% |
| CC(C)(C)OC(=O)N1CCC[C@H]1C(=O)Nc1ccc(-c2cn(C(=O)OC(C)(C)C)c(N)n2)cc1 | 20% |
| Cl.Cl.Nc1nc(-c2ccc(NC(=O)[C@@H]3CCCN3)cc2)c[nH]1 | 22% |
| COCc1c(C(=O)Nc2cccc(-c3ccn[nH]3)c2)sc2cccc(F)c12 | 65% |
| CNC1=NC(c2cccc(NC(=O)c3cc4ccccc4[nH]3)c2)CN1.Cl (stereo not given) | 27% |
| O=C(Nc1cccc(-c2ccn[nH]2)c1)c1cc2ccccc2c(=O)[nH]1 | 91% |
| CC(C)(C)OC(=O)n1cc(-c2cccc(NC(=O)c3cc4ccccc4[nH]3)c2)nc1N | 75% |
| CC(C)(C)OC(=O)N1CCCC1C(=O)Nc1cccc(-c2cn(C(=O)OC(C)(C)C)c(N)n2)c1 (single isomer, unassigned) | 18% |
| Cl.Cl.Nc1nc(CN2CCN(Cc3ccccc3)CC2)c[nH]1 | 32% |

| Compound | Activity |
| --- | --- |
| Nc1nc2c(s1)C[C@@H](NC(=O)c1ccco1)CC2 | 29% |
| Cl.Nc1nc(-c2cccc(NC(=O)c3ccc[nH]3)c2)c[nH]1 | 13% |
| CC(C)(C)OC(=O)n1cc(-c2cccc(NC(=O)c3cc[nH]c3)c2)nc1N | 19% |
| Cn1cccc1C(=O)N[C@H]1CCc2nc(N)sc2C1 | 20% |
| CC(C)(C)OC(=O)n1cc(-c2ccc(NC(=O)c3ccc[nH]3)cc2)nc1N | 24% |
| O=C(Nc1cccc(-c2ccn[nH]2)c1)c1ccc2[nH]nnc2c1 | 20% |
| CC(C)(C)OC(=O)n1cc(-c2cccc(NCc3ccc[nH]3)c2)nc1N | 40% |
| CNC1=NC(c2cccc(NC(=O)c3ccc[nH]3)c2)CN1.Cl (stereo not given) | 28% |
| Nc1nc(/C=C/CNC(=O)c2cc3ccccc3[nH]2)c[nH]1 | 36% |
| Nc1nc(CCCNC(=O)c2ccc[nH]2)c[nH]1 | 25% |
| CC(C)(C)OC(=O)n1cc(-c2cccc(NC(=O)c3cc4sccc4[nH]3)c2)nc1N | 86% |
| Cl.Nc1nc(-c2cccc(NC(=O)c3c[nH]c4ccccc34)c2)c[nH]1 | 55% |
| CC(C)(C)OC(=O)n1cc(-c2cccc(NC(=O)c3cc4cc(OCc5ccccc5)ccc4[nH]3)c2)nc1N | 81% |
| CC(C)(C)OC(=O)n1cc(-c2ccc(NC(=O)c3cc4ccccc4[nH]3)cc2)nc1N | 90% |
| Cc1cc(C)n2nc(C(=O)Nc3cccc(-c4ccn[nH]4)c3)nc2n1 | 31% |
| Nc1ncc(/C=C/CNC(=O)c2ccc[nH]2)[nH]1 [CLATHRODIN] | 27% |
| COc1ccc2[nH]c(C(=O)Nc3cccc(-c4cn(C(=O)OC(C)(C)C)c(N)n4)c3)cc2c1 | 87% |
| Cc1c(NC(=O)c2cc3ccccc3o2)cccc1-n1cnnn1 | 45% |
| CC(C)(C)OC(=O)N1CCC[C@@H]1C(=O)Nc1ccc(-c2cn(C(=O)OC(C)(C)C)c(N)n2)cc1 | 23% |
| O=C(Nc1cccc(-c2ccn[nH]2)c1)c1cc2ccccc2[nH]1 | 68% |
| Cl.Nc1nc(-c2cccc(NC(=O)c3cc4sccc4[nH]3)c2)c[nH]1 | 96% |
| Nc1nc2c(s1)CC(CNC(=O)c1ccc[nH]1)CC2 (stereo not given) | 20% |
| Cl.Nc1nc(-c2cccc(NC(=O)c3cc4ccccc4[nH]3)c2)c[nH]1 | 77% |

Tested on: THP-1
Test: Induction of apoptosis in human THP1 cells at 50 uM incubated for 24 hrs by Annexin V-FITC and propidium iodide staining based microcapillary flow cytometry
Format: functional
Details: not given

| Compound | Activity |
| --- | --- |
| Cl.Nc1nc(-c2cccc(NC(=O)c3cc4cc(Cl)ccc4[nH]3)c2)c[nH]1 | 87% |
| CNc1nc(-c2cccc(NC(=O)c3cc4ccccc4[nH]3)c2)c[nH]1.Cl | 87% |
| Cl.Nc1nc(-c2cccc(NC(=O)c3cc4sccc4[nH]3)c2)c[nH]1 | 12% |

Tested on: THP-1
Test: Induction of apoptosis in human THP1 cells incubated for 24 hrs by Annexin V-FITC and propidium iodide staining based microcapillary flow cytometry
Format: functional, cell-based
Details: THP-1, 24 h

| Compound | EC50 |
| --- | --- |
| Cl.Nc1nc(-c2cccc(NC(=O)c3cc4cc(Cl)ccc4[nH]3)c2)c[nH]1 | 24 µM |
| CNc1nc(-c2cccc(NC(=O)c3cc4ccccc4[nH]3)c2)c[nH]1.Cl | 24 µM |
| Cl.Nc1nc(-c2cccc(NC(=O)c3cc4sccc4[nH]3)c2)c[nH]1 | > 50 µM |

— ChEMBL document CHEMBL3621195, “Analogues of the marine alkaloids oroidin, clathrodin, and hymenidin induce apoptosis in human HepG2 and THP-1 cancer cells” (Medchemcomm, 2015)
